Measured values from a melting point compilation (Tetko et al.; mined from patent text by program, amines drawn as free bases though some values may be those of a salt).

Compared with `CCOC(=O)NNc1ccc(N(C)CC(C)O)nn1` (stereo not drawn), `CCOC(=O)COc1ccc(CCC(=O)OC)cc1[N+](=O)[O-]` is lower in melting point: 150 to 152 °C for the first, 70 to 72 °C for the second.

First: Cc1nc2c(N)nc3ccccc3c2n1CCC1(O)CCOCC1
Second: CC(C)(C)OC(=O)NCCCCn1c(-c2ccccc2)nc2c(N)nc3ccccc3c21
The melting point of the first is higher: > 253 °C for the first, 182 to 183 °C for the second.

First: C#CCn1c(-c2ccccc2)nc(CC)c(CC(N)=O)c1=O
Second: CCOC(=O)c1oc(-c2ccccc2)cc(=O)c1Br
The melting point of the first is higher: 196 to 198 °C for the first, 135 °C for the second.

Compared with `CCC=Cc1ncc(/C=C(\Cc2cccs2)c2nnn[nH]2)n1Cc1ccccc1Cl`, `CCCCc1ncc(C(=O)OCC)c(=O)n1Cc1ccc(-c2ccccc2-c2nnn[nH]2)cc1` is lower in melting point: 182 to 184 °C for the first, 168 to 173 °C for the second.

First: CCC(CC)n1nnc2cc(C)c(C)c([N+](=O)[O-])c21
Second: CCC(CC)n1c(N)nc2c(Oc3c(C)cc(C)cc3C)nc(C)cc21
The melting point of the first is lower: 106 to 108 °C for the first, 208 to 210 °C for the second.

First: N#CCCNc1nonc1-c1nc2ccccc2n1CC(=O)c1ccc(Cl)cc1
Second: O=C(c1ccc(Cl)cc1)c1c(N2C(=O)c3ccccc3C2=O)sc(Br)c1CBr
The melting point of the first is higher: 191 to 192 °C for the first, 173 to 175 °C for the second.

First: Clc1cc2c(cc1CN1CCN(CCOc3ccccc3)CC1)OCO2
Second: Nc1ccc2c(c1)CC(N1CCN(CCN3CCOC3=O)CC1)c1ccccc1S2 (stereo not drawn)
The melting point of the first is lower: 72 to 76 °C for the first, 193 to 196 °C for the second.

Compared with `c1ccc(CNc2nccc3[nH]cnc23)cc1`, `COc1cccc(Cc2n[nH]c3c2c(=O)n(-c2ccccc2)c2ncccc32)c1` is higher in melting point: 60 to 64 °C for the first, 234 to 236 °C for the second.

First: CCOC(=O)NC(=NCCCc1c[nH]cn1)NCCSCc1ccccc1
Second: CCOC(=O)c1cn(Cc2ccccc2)c2cc(C3CC3)nn2c1=O
The melting point of the first is lower: 91 to 92 °C for the first, 160 to 165 °C for the second.

First: O=C(O)CCc1cc2c(Cl)c(Cl)ccc2n1S(=O)(=O)c1ccccc1
Second: COC(=O)CCCc1cc2cc(Cl)ccc2n1S(=O)(=O)c1cccc(Cl)c1Cl
The melting point of the first is higher: 220 °C for the first, 115 to 117 °C for the second.

Compared with `O=C(c1ccccc1)N1CCc2cc(S(=O)(=O)n3cc(-c4ccccc4)[nH]c3=O)ccc21`, `C=CC[C@H]1C(=O)N(S(=O)(=O)c2ccc3ccccc3c2)[C@H]2CCN(C(=O)OCc3ccccc3)[C@H]12` (relative stereo) is lower in melting point: 167 to 170 °C for the first, 158 to 160 °C for the second.

First: COc1cc2c(c(OC(C)=O)c1)C1CCC3(C)C(O)CCC3C1CC2 (stereo not drawn)
Second: COc1ccc(Cl)cc1C(=O)NC1Cc2ccc(S(=O)(=O)NC(=O)NCC3CCCC3)cc2C1 (stereo not drawn)
The melting point of the first is lower: 107 to 110 °C for the first, 194 to 196 °C for the second.

Compared with `CCOC(=O)N1CCN(C2=Nc3cc(Br)ccc3N3CCc4cccc2c43)CC1`, `Cc1nc(NC(=O)Nc2ccc(N3CCN(C(=O)Nc4ccc(OCCO)cc4Cl)CC3)nc2)sc1C` is higher in melting point: 128 to 131 °C for the first, 184 to 185 °C for the second.

First: CC(=CC=Cc1ccccc1)C(=O)C1OCC(C)(C)CO1
Second: CC(=S)OC(c1ccccc1)C1(C)OCCO1 (stereo not drawn)
The melting point of the first is higher: 122 to 125 °C for the first, 49 to 52 °C for the second.

First: COc1ccc(-c2c3c(cc4ccc(OC)c(OC)c24)C(=O)NC3)cc1
Second: CCC(C)c1ccc(-n2c(-c3cc(C)c(OCCO)c(C)c3)nc3c(OC)cccc3c2=O)cc1 (stereo not drawn)
The melting point of the first is higher: 258 to 260 °C for the first, 158 to 159 °C for the second.

First: O=C(O)CCCCOc1cccc(CNC(=O)C2Cc3ccccc3N2S(=O)(=O)c2ccc(-c3cccc(C(F)(F)F)c3)cc2)c1 (stereo not drawn)
Second: CCCCC1c2ccccc2-c2cc(Br)ccc2N1S(=O)(=O)c1ccc(OC)cc1 (stereo not drawn)
The melting point of the first is lower: 70 °C for the first, 108 to 111 °C for the second.

Compared with `COCCOc1cc(NC(=O)OC(C)(C)C)c([N+](=O)[O-])cc1I`, `COCc1cc([N+](=O)[O-])ccc1C` is lower in melting point: 109 to 111 °C for the first, 45 to 49 °C for the second.

Compared with `Cc1cc2c(s1)SCCc1cc(=O)n(-c3ccc(Cl)cc3)nc1-2`, `Cc1cc(Cl)ccc1OCc1ccccc1C(O)c1nccn1C` (stereo not drawn) is higher in melting point: 150 to 151 °C for the first, 159 to 160 °C for the second.

First: CC(C)N1C(=O)NC(c2ccc3c(c2)OCCO3)c2cc3c(cc21)OCO3 (stereo not drawn)
Second: CCCC(OC)c1ccc(Cl)c2nc3n(c12)CCCN3c1ccc(Cl)cc1Cl (stereo not drawn)
The melting point of the first is higher: 185 to 187 °C for the first, 139 to 140 °C for the second.

First: O=C1OC2(CCN(CCC(O)c3ccccc3)CC2)c2ccccc21 (stereo not drawn)
Second: O=C1OC2(CCN(C(=O)Nc3cnc(-c4cccc(O)c4)cn3)CC2)c2ccccc21
The melting point of the first is lower: 144 to 146 °C for the first, 257 to 259 °C for the second.

First: Clc1ccc(CC(OC2CCCC(Cn3ccnc3)O2)c2ccccc2)c(Cl)c1 (stereo not drawn)
Second: O=C(Nc1ccccc1)N1CCC(c2nn(-c3ccccc3)c3cc(F)ccc23)CC1
The melting point of the first is lower: 118 to 120 °C for the first, 163 to 165 °C for the second.

Compared with `OCc1cn(-c2ccc(Cl)c(C(F)(F)F)c2)cn1`, `O=C(O)Cc1ccc(C(=O)c2cccc(C(F)(F)F)c2)s1` is lower in melting point: 148 to 153 °C for the first, 120 °C for the second.

Compared with `O=C(O)CCNc1cc(C(c2cc(F)ccc2F)S(=O)(=O)c2ccc(Cl)cc2)c(Cl)cn1` (stereo not drawn), `O=C(NC(=O)c1ccccc1Cl)Nc1ccc(-c2ccc(Cl)cc2)cn1` is higher in melting point: 200 to 205 °C for the first, 228 to 231 °C for the second.

First: CC(=O)Nc1cc(C)c2c(c1O)C(=O)CC2
Second: Cc1c(C(=O)O)ccc2c1CCCO2
The melting point of the first is lower: 193 to 198 °C for the first, 207 to 208 °C for the second.

First: CN(CC1OCCO1)c1nccc(Oc2ccc(NC(=O)c3cc(F)cc(N4CCCCC4)c3)c3ccccc23)n1
Second: COCCN1CCc2ccc(OC)c(Nc3ncc(Cl)c(Nc4ccc(N5CCOCC5)cc4OC)n3)c2CC1
The melting point of the first is higher: 125 to 127 °C for the first, 68 to 80 °C for the second.

First: CCCC1(CCC)CCC2(CC1)CC(=O)OC(=O)C2
Second: CCC(C)N1CC(=O)N(C(C)CC)CC1=O (stereo not drawn)
The melting point of the first is lower: 91 to 93 °C for the first, 95.5 to 97.5 °C for the second.

First: OCc1cc2cc(-c3ccccc3)ccc2o1
Second: c1ccc(CN2CCCC3(CC2)CC(c2ccccc2)=NO3)cc1 (stereo not drawn)
The melting point of the first is higher: 134 to 135 °C for the first, 42 to 57 °C for the second.

Compared with `Cc1cccc2nc(C(C)Nc3ncnc4c3ncn4COCC[Si](C)(C)C)n(-c3cccc(C(N)=O)c3)c(=O)c12` (stereo not drawn), `CCOc1ccc2c(c1)C(C)(c1ccccc1Cl)C(=O)N2S(=O)(=O)c1ccc(NC(=O)N(CC)CC)cc1OC` (stereo not drawn) is lower in melting point: 195 to 197 °C for the first, 137 °C for the second.

Compared with `Cc1cnc2c(NC(=O)c3c(Cl)cccc3Cl)cccc2c1Cl`, `Cc1c(C(=O)Nc2ccc(OCCO)cc2)nnn1Cc1ccc(Cl)c(Cl)c1` is lower in melting point: 216 to 227 °C for the first, 140 °C for the second.

First: CS(=O)(=O)N(CCCl)N(S(C)(=O)=O)S(C)(=O)=O
Second: COC1=C(OC)C(=O)C(CCC(=O)NCC(=O)O)=C(C)C1=O
The melting point of the first is higher: 154 to 155 °C for the first, 128 to 130 °C for the second.

First: Cc1cc(-c2c(F)cc3c(=O)c(Cc4c(O)cccc4O)cn(C4CC4)c3c2F)cc(C)n1
Second: CC(=O)NCC1CN(c2cc(F)c(-c3cccnc3)c(F)c2)C(=O)O1 (stereo not drawn)
The melting point of the first is higher: 308 to 310 °C for the first, 218 to 219 °C for the second.

`C#Cc1c[nH]c2nc(NC(=O)C(C)(C)C)nc(O)c12` and `Cn1nnc2c3nc(O)c(O)nc3ccc21` cannot be ordered by melting point: > 300 °C for the first, > 300 °C for the second.

First: CN1C(=O)CCC(C)(C)c2cc(Nc3ncc(Cl)c(N[C@H]4[C@@H](C(N)=O)[C@@H]5C=C[C@H]4C5)n3)ccc21
Second: Fc1ccc(Nc2ncnc3cnc(N4CCCCCC4)nc23)cc1Cl
The melting point of the first is higher: 233 °C for the first, 87 to 90 °C for the second.

First: CCCCC(CC)C(=O)Nc1ccc2ccn(Cc3ccc(C(=O)OC)c4ccoc34)c2c1 (stereo not drawn)
Second: CCCCCCCCCCc1ccc(NC(=O)c2cnc(C(=O)NCC(=O)OCC)c(OC)c2)cc1
The melting point of the first is higher: 164 to 167 °C for the first, 155 to 157 °C for the second.

Compared with `CCOC(=O)OC(C)OC(=O)c1cc(-c2ccc(F)cc2F)ccc1O` (stereo not drawn), `CCOC(=O)c1cc(-c2nn3c(c2Cl)CCCC3)c(F)cc1Cl` is lower in melting point: 76 to 78 °C for the first, 72 to 73 °C for the second.

First: COc1cc(OC)c(-c2cccs2)cc1/C=C/C(=O)c1ccc(C(=O)O)cc1
Second: COC(=O)C=Cc1cncc2ccccc12
The melting point of the first is higher: 213 to 216 °C for the first, 79 to 80 °C for the second.

Compared with `CCC(C)Cc1nc(-c2cc[nH]n2)nc(OC)c1-c1c(F)cc(F)cc1F` (stereo not drawn), `C=CCOCCOC(=O)c1cc(-n2c(OC)nc(C(F)(F)F)cc2=O)c(F)cc1Cl` is lower in melting point: 124 °C for the first, 74 to 77 °C for the second.

First: CC#CC(O)(C#CC)C1(Cl)CC(c2ccccc2)=CC=C1N (stereo not drawn)
Second: CN1CCc2ccccc2C(c2ccccc2)C1(C)C (stereo not drawn)
The melting point of the first is higher: 112 to 114 °C for the first, 92 to 93 °C for the second.

Compared with `O=C(O)C1Oc2ccccc2Cc2ccccc2O1`, `Cc1c(Oc2ccccc2)cccc1Oc1ccccc1` is lower in melting point: 153 to 157 °C for the first, 39 to 41 °C for the second.

First: Cc1ncc(C#N)c(Nc2ccc3[nH]ccc3c2C)c1I
Second: Cc1oc2c(-n3c(=O)cc(C(F)(F)F)n(C)c3=O)ccc(Cl)c2c1C
The melting point of the first is higher: 222 to 223 °C for the first, 152 to 153 °C for the second.

First: CC(C)C1N(CC(N)=O)C(=O)CN1C(=O)CN (stereo not drawn)
Second: CCOC(=O)[C@H](CC(C)C)NC(=O)[C@@H]1CCCN1C(=O)OCc1ccccc1
The melting point of the first is higher: 205 to 211 °C for the first, 60 to 64 °C for the second.

Compared with `O=C1C=C(Nc2cc(F)ccc2F)CCN1`, `CCCC1=C(c2ccc(F)cc2)C(=NO)CC1` is lower in melting point: 252 to 255 °C for the first, 165 to 166 °C for the second.

Compared with `CC(=Cc1ccc(O)cc1)c1ccc2c(c1)C(C)(C)C(O)C2(C)C` (stereo not drawn), `OCCc1nccn1CCCCc1ccc(OCc2coc(/C=C/c3ccc(F)cc3)n2)cc1` is lower in melting point: 148 to 149 °C for the first, 130 to 132 °C for the second.

Compared with `CCN1C(=O)Cc2cc(OC(=O)CCl)ccc21`, `CC(C)c1cc(CO)n(Cc2ccc(Cl)cc2Cl)n1` is higher in melting point: 53 to 57 °C for the first, 89 to 90 °C for the second.

First: O=C(Cc1ccccc1)CC1c2ccccc2C(=O)N1c1ccc2ccc(Cl)nc2n1 (stereo not drawn)
Second: COC(CSc1nc(SCc2ccccc2)n[nH]1)OC
The melting point of the first is higher: 182 °C for the first, 73 to 76 °C for the second.

Compared with `O=C(OC1CCCCCC1=O)c1ccccc1` (stereo not drawn), `O=C1NC(=O)C(=Cc2ccc(N3CCC(NC[C@H](O)COc4cccc5[nH]c(=O)[nH]c45)CC3)c(F)c2)S1` is higher in melting point: 59 to 60 °C for the first, 162 to 164 °C for the second.

Compared with `CC1CCC(CCC(=O)O)(CCC(=O)O)C(=O)C1(CCC(=O)O)CCC(=O)O` (stereo not drawn), `CCCCCCCCCCCCC1(Cc2cc(N=Nc3ccc([N+](=O)[O-])cc3[N+](=O)[O-])ccc2O)COCCOCC(C)(C)COCCOC1` is lower in melting point: 210 to 213 °C for the first, 64 to 65 °C for the second.

First: CC(C)S(=O)(=O)c1cc(OCCc2ccccn2)c2[nH]nc(Nc3nccs3)c2c1
Second: Clc1cc(Cl)c(OCOCOc2c(Cl)cc(Cl)cc2Cl)c(Cl)c1
The melting point of the first is higher: 190 to 191 °C for the first, 179 to 181 °C for the second.

First: CCCCCCCCCCCCCCCCOC(=O)c1ccc(-c2nnn[nH]2)nc1
Second: COc1cc(C)c(C(=O)c2c(Cl)cncc2C(F)(F)F)c(OC)c1OC
The melting point of the first is higher: 139 to 140 °C for the first, 75 to 77 °C for the second.
